Assay results published in the NIST ThermoML archive (doi:10.1016/j.tca.2005.11.024).
Numbers after ± are expanded uncertainties.

Assays:
[1] = Crystal; DTA
[2] = Molar enthalpy of transition or fusion; conditions: Crystal; DSC
[3] = molar heat capacity at constant pressure; conditions: 101.33 kPa, Small sample (50 mg) DSC

c1csc(-c2cccs2)c1 [2,2'-bithienyl]
Conditions | Molar enthalpy of transition or fusion [kcal/mol] | Normal melting temperature [°C]
[1] | – | 31.1 ± 0.5
[2] | 3.94 ± 0.12 | –

[3], Crystal
Conditions | molar heat capacity at constant pressure [J/K/mol]
263.15 K | 175.4 ± 3.5
265.15 K | 176.2 ± 3.5
270.15 K | 178.3 ± 3.6
275.15 K | 182.4 ± 3.6
280.15 K | 185.6 ± 3.7
285.15 K | 189.3 ± 3.8
290.15 K | 192.9 ± 3.9
291.15 K | 193.6 ± 3.9
295.15 K | 198.5 ± 4
298.15 K | 205.5 ± 4.1
300.15 K | 218.1 ± 4.4

O=C(O)c1ccc(C(=O)O)s1 [2,5-thiophenedicarboxylic acid]
[3], Crystal
Conditions | molar heat capacity at constant pressure [J/K/mol]
277.15 K | 161.4 ± 3.2
280.15 K | 162.7 ± 3.3
285.15 K | 163.7 ± 3.3
290.15 K | 164.7 ± 3.3
295.15 K | 166.4 ± 3.3
298.15 K | 167.1 ± 3.3
300.15 K | 167.7 ± 3.4
305.15 K | 169.5 ± 3.4
310.15 K | 171 ± 3.4
315.15 K | 173.1 ± 3.5
320.15 K | 175.1 ± 3.5
325.15 K | 177 ± 3.5
330.15 K | 178.1 ± 3.6
335.15 K | 179.7 ± 3.6
340.15 K | 180.8 ± 3.6
345.15 K | 182.3 ± 3.6
350.15 K | 184 ± 3.7
355.15 K | 186.1 ± 3.7
360.15 K | 186.4 ± 3.7
365.15 K | 190.1 ± 3.8
370.15 K | 192.4 ± 3.8
375.15 K | 194.2 ± 3.9
380.15 K | 196.7 ± 3.9
385.15 K | 198.7 ± 4
390.15 K | 200.9 ± 4
395.15 K | 203.3 ± 4.1
400.15 K | 206.1 ± 4.1
405.15 K | 209.6 ± 4.2
410.15 K | 210.9 ± 4.2
415.15 K | 213.7 ± 4.3
420.15 K | 216.3 ± 4.3
425.15 K | 219.4 ± 4.4
430.15 K | 223.1 ± 4.5
435.15 K | 225.5 ± 4.5
440.15 K | 228.1 ± 4.6
445.15 K | 229.8 ± 4.6

CC(=O)c1cccs1 [2-acetylthiophene]
Conditions | molar heat capacity at constant pressure [J/K/mol]
[3], 298.15 K, Liquid | 205.7 ± 4.2

O=C(O)Cc1cccs1 [2-thiopheneacetic acid]
Conditions | Molar enthalpy of transition or fusion [kcal/mol] | Normal melting temperature [°C]
[1] | – | 64.2 ± 0.5
[2] | 3.35 ± 0.12 | –

[3], Crystal
Conditions | molar heat capacity at constant pressure [J/K/mol]
268.15 K | 146.3 ± 2.9
270.15 K | 147.2 ± 2.9
275.15 K | 149.6 ± 3
280.15 K | 150.9 ± 3
285.15 K | 153.4 ± 3.1
290.15 K | 155.2 ± 3.1
295.15 K | 157.6 ± 3.2
298.15 K | 159.2 ± 3.2
300.15 K | 160.3 ± 3.2
305.15 K | 163.9 ± 3.3
310.15 K | 166.1 ± 3.3
315.15 K | 168.5 ± 3.4
320.15 K | 170.5 ± 3.4
325.15 K | 173.6 ± 3.5

CC(=O)c1ccsc1 [3-acetylthiophene]
Conditions | Molar enthalpy of transition or fusion [kcal/mol] | Normal melting temperature [°C]
[1] | – | 60.5 ± 0.5
[2] | 4.52 ± 0.0956 | –

[3], Crystal
Conditions | molar heat capacity at constant pressure [J/K/mol]
268.15 K | 134 ± 2.7
270.15 K | 134.9 ± 2.7
275.15 K | 136.7 ± 2.7
280.15 K | 138.7 ± 2.8
285.15 K | 140.3 ± 2.8
290.15 K | 142.4 ± 2.8
295.15 K | 145 ± 2.9
298.15 K | 146.1 ± 2.9
300.15 K | 147.5 ± 3

O=C(O)Cc1ccsc1 [3-thiopheneacetic acid]
Conditions | Molar enthalpy of transition or fusion [kcal/mol] | Normal melting temperature [°C]
[1] | – | 80.2 ± 0.5
[2] | 4.49 ± 0.143 | –

[3], Crystal
Conditions | molar heat capacity at constant pressure [J/K/mol]
268.15 K | 151.1 ± 3
270.15 K | 152.6 ± 3.1
275.15 K | 155.6 ± 3.1
280.15 K | 158.5 ± 3.2
285.15 K | 160.8 ± 3.2
290.15 K | 163.6 ± 3.3
295.15 K | 166.6 ± 3.3
298.15 K | 168.4 ± 3.4
300.15 K | 169.8 ± 3.4
305.15 K | 172.7 ± 3.5
310.15 K | 175.3 ± 3.5
315.15 K | 178.8 ± 3.6
320.15 K | 182.7 ± 3.7
325.15 K | 186.8 ± 3.7
330.15 K | 190.6 ± 3.8
335.15 K | 193.9 ± 3.9
340.15 K | 198.7 ± 4

COC(=O)Cc1cccs1 [methyl 2-thiopheneacetate]
Conditions | molar heat capacity at constant pressure [J/K/mol]
[3], 298.15 K, Liquid | 249.8 ± 3.9

COC(=O)Cc1ccsc1 [methyl 3-thiopheneacetate]
Conditions | molar heat capacity at constant pressure [J/K/mol]
[3], 298.15 K, Liquid | 250.6 ± 4.9
